From article PMC7280029, “Development of FRET‐based high‐throughput screening for viral RNase III inhibitors” (Molecular Plant Pathology, 2020)

Experiments:
[1] = target: CSR3 (class 1 RNase III of Sweet potato chlorotic stunt virus) (Sweet potato chlorotic stunt virus, UniProt Q8JJW8); experiment: biochemical; format: biochemical; settings: for DSS (drug-sensitivity score): dose-response 1.25 nM to 50 µM, Breeze software
Procedure: A dose–response assay was carried out with the top 109 compounds (concentration range 1.25 nM to 50 µM). The data were analysed with Breeze software, which generates dose–response curves and calculates the half‐maximal inhibitory concentration (IC50) and drug‐sensitivity score (DSS) for every compound. Considering that IC50 alone cannot comprehensively evaluate the drug sensitivity of the dose–response model in HTS assay, DSS was developed by Yadav et al. (2014) as a systematic algorithmic solution that integrated five factors: IC50, the slope at IC50, minimum activity level, and top and bottom asymptotes of dose–response model. The DSS values ranged from 0 to 19.2. The three structures differ (Figure 6, starred compounds). […] Table S1 lists the 109 compounds from the dose–response screens for CSR3, including information for compound identity, IC50, DSS, and dose–response curves.
For the HTS assay, plates (10 µM compound in each well) were prepared with an Echo liquid handler (Labcyte) at the FIMM (Institute for Molecular Medicine Finland) High‐Throughput Biomedicine unit. CSR3 and annealed siRNA were diluted to […] and 750 nM, respectively, in reaction buffer (50 mM Tris‐HCl, 125 mM NaCl, 25 mM MgCl2, pH 8.0). CSR3 solutions were dispensed into the wells of plates (10 µl CSR3 per well). Plates were incubated at room temperature for 15 min with shaking (450 rpm). Subsequently, 10 µl substrate was dispensed per well. […] The dose–response assay with six compound concentrations (range, 1.25 nM to 50 µM) was carried out with the same conditions. Plates were sealed, centrifuged briefly, and then, immediately analysed with a PHERAstar FS (BMG Labtech) with a fluorescence‐intensity optic module (excitation at 485 ± 6 nm, detection at 520 ± 5 nm) for 12 cycles (c.17 min total) at 37 °C. All dispensing was done using the BioTek MultiFlo FX. All screening plates contained positive‐control wells (lacking CSR3) and negative‐control wells (25 nl dimethyl sulphoxide, vehicle), which were used as standards to calculate the PI of compounds.
The PI of each compound for CSR3 was calculated according to Equation 2. A PI threshold of 30% was used as the cut‐off value for one concentration of HTS. Furthermore, the dose–response curves of PI in function of compound concentration were evaluated with DSS according to Yadav et al. (2014).(2) PI=1001-Ss-Sc+/SC--Sc+% where Sc + is the mean of the slope of the positive control, Sc − is the mean of the slope of the negative control, and Ss is the mean of the slope of samples.

[2] = tested on: HIV-1 reverse transcriptase; set-up: method as in PubChem database; settings: ref PubChem database; cited from earlier work
[3] = tested on: human heat shock 70 kDa protein; set-up: method as in PubChem database; settings: ref PubChem database; cited from earlier work
[4] = tested on: Cytokine/receptor Binary Complex of humans (4KC3_B); set-up: method as in PubChem database; settings: ref PubChem database; cited from earlier work
CSR3 = CSR3 kinetics with labelled siRNA substrate (Michaelis-Menten); format: biochemical, Sweet potato chlorotic stunt virus; settings: 50 nM CSR3, 50-800 nM labelled siRNA
Procedure: To monitor the kinetics of CSR3 endoribonuclease activity, two‐fold dilutions (yielding 50–800 nM) of the labelled siRNA substrate were tested with 50 nM CSR3. As expected, start points of raw fluorescence increased with the FRET‐siRNA concentration (Figure 4a). Moreover, the slope of the raw fluorescence between all neighbouring detection cycles was calculated for all cycle numbers. […] Finally, the maximal slope for every labelled siRNA concentration was used to determine the catalytic rate of CSR3.
The HTS assay was designed to maximize siRNA cleavage by CSR3. We used a donor–quencher fluorogenic siRNA as the substrate for CSR3. […] To assess CSR3 activity, five labelled siRNA concentrations (50–800 nM) were used with 50 nM CSR3. To test the reproducibility and precision of the assay, full plates containing only negative (50 nM CSR3) and positive reactions (lacking CSR3) were tested with 375 nM labelled siRNA. […]
The kinetic constant (K d) for CSR3 was calculated using the three‐parameter Michaelis–Menten model (MM.3) included in the R package dcr (Ritz et al., 2015). The statistical significance of differences between values was assessed with one‐way ANOVA using the aov function in the R package.

CSR3 (class 1 RNase III of Sweet potato chlorotic stunt virus), sequence (Q8JJW8 entry or part of it): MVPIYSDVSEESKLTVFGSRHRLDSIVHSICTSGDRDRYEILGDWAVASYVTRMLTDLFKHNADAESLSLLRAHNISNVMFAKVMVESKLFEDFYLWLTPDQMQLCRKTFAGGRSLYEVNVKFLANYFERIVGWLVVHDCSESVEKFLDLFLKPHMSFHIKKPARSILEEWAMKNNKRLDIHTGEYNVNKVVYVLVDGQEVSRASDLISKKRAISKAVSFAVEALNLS

O=S(=O)(O)c1cccc2cc(O)ccc12 [FIMM072577]
IC50 [1]: 0.699 µM | DSS (drug-sensitivity score) [1]: 18.3

COc1cc(C=C2C(=O)NC(=S)NC2=O)ccc1OCc1ccccc1[N+](=O)[O-] [FIMM101864]
IC50 [1]: 3.85 µM | DSS (drug-sensitivity score) [1]: 11.2

CCn1c(S)nnc1CCNC(=O)c1cccs1 [FIMM099662]
IC50 [1]: 3.07 µM | DSS (drug-sensitivity score) [1]: 11.7

c1cnc2[nH]c(Nc3ccc(Nc4nc5cccnc5[nH]4)cc3)nc2c1 [FIMM092170]
IC50 [1]: 2.84 µM | DSS (drug-sensitivity score) [1]: 12.9

CC(C)(C)C1CCc2c(sc(NC(=O)C3CC=CCC3C(=O)O)c2C(N)=O)C1 (stereo not drawn) [FIMM104970]
DSS (drug-sensitivity score) [1]: 0

Cc1ccc(C)c(C(=O)CSc2nnc[nH]2)c1 [FIMM027745]
IC50 [1]: 0.647 µM | DSS (drug-sensitivity score) [1]: 19.2 | activity in inhibitor screen [2]: inactive | activity in inhibitor screen [3]: inactive

Cc1ccc([C@@H]2Nc3ccc(C(=O)O)cc3[C@@H]3C=CC[C@@H]32)cc1 [FIMM031755]
activity in inhibitor screening assay [4]: effective at micromolar concentrations | IC50 [1]: 1.27 µM

O=C(O)c1ccc(C2Nc3c(Br)cccc3C3C=CCC32)cc1 (stereo not drawn) [FIMM022230]
IC50 [1]: 1.86 µM | DSS (drug-sensitivity score) [1]: 13.8

labelled siRNA: 22 bp siRNA with two-nucleotide 3' overhang, FAM reporter and BHQ1 quencher on the sense strand; CSR3 substrate (sense CGUAGUGGAAGUGGGAGAGGTC; antisense CCUCUCCCACUUCCACUACGTG; FAM reporter and BHQ1 quencher on sense strand, positions not given here)
Km (CSR3; Michaelis-Menten model MM.3): 0.229 µM | Vmax (CSR3; maximal slope): 22.47

CN1C(=O)C(=CNc2ccc(F)cc2)C(=O)N(C)C1=O [FIMM059523]
IC50 [1]: > 50 µM | DSS (drug-sensitivity score) [1]: 0

CCn1c(C)nc2cc(S(N)(=O)=O)ccc21 [FIMM028155]
IC50 [1]: 0.782 µM | DSS (drug-sensitivity score) [1]: 17.6

O=C1c2c(O)ccc(O)c2C(=O)c2c(NCCNCCO)ccc(NCCNCCO)c21 [FIMM000490]
IC50 [1]: 1.81 µM | DSS (drug-sensitivity score) [1]: 14.9

CN1CCc2cccc3c2[C@H]1Cc1ccc(O)c(O)c1-3 [FIMM000096]
IC50 [1]: 2.9 µM | DSS (drug-sensitivity score) [1]: 12.7
